According to ChEMBL document CHEMBL4270481, “ALK5 kinase inhibitory activity and synthesis of 2,3,4-substituted 5,5-dimethyl-5,6-dihydro-4H-pyrrolo[1,2-b]pyrazoles” (Eur J Med Chem, 2017):

How the values were obtained:
[1] = target: Mitogen-activated protein kinase 8 (Homo sapiens) (UniProt P45983); test: Inhibition of JNK1 (unknown origin) assessed as residual enzyme activity at 1 uM relative to untreated control
[2] = target: Serine/threonine-protein kinase Nek6 (Homo sapiens) (UniProt Q9HC98); test: Inhibition of NEK6 (unknown origin) assessed as residual enzyme activity at 1 uM relative to untreated control
[3] = target: Casein kinase I isoform delta (Homo sapiens) (UniProt P48730); test: Inhibition of CK1delta (unknown origin) assessed as residual enzyme activity at 1 uM relative to untreated control
[4] = target: Serine/threonine-protein kinase PLK1 (Homo sapiens) (UniProt P53350); test: Inhibition of PLK1 (unknown origin) assessed as residual enzyme activity at 1 uM relative to untreated control
[5] = target: SRSF protein kinase 1 (Homo sapiens) (UniProt Q96SB4); test: Inhibition of SRPK1 (unknown origin) assessed as residual enzyme activity at 1 uM relative to untreated control
[6] = target: Serine/threonine-protein kinase TBK1 (Homo sapiens) (UniProt Q9UHD2); test: Inhibition of TBK1 (unknown origin) assessed as residual enzyme activity at 1 uM relative to untreated control
[7] = target: Tyrosine-protein kinase JAK2 (Homo sapiens) (UniProt O60674); test: Inhibition of JAK2 (unknown origin) assessed as residual enzyme activity at 1 uM relative to untreated control
K562 = test: Cytotoxicity against human K562 cells assessed as decrease in cell proliferation after 72 hrs by calcein AM staining-based assay; format: functional; conditions: K562, 72 h
[8] = target: Casein kinase 2 (Homo sapiens) (UniProt P67870+P68400+P19784+Q8NEV1); test: Inhibition of CK2 (unknown origin) assessed as residual enzyme activity at 1 uM relative to untreated control; format: protein assay
[9] = target: Ephrin type-A receptor 2 (Homo sapiens) (UniProt P29317); test: Inhibition of EPHA2 (unknown origin) assessed as residual enzyme activity at 1 uM relative to untreated control
[10] = target: T1, TGF-beta receptor type-1 (Homo sapiens) (UniProt P36897); test: Inhibition of ALK5 in serum starved human HeLa cells assessed as reduction in TGF-beta-induced SMAD2 S465/467 phosphorylation pre-incubated for 30 mins before TGF-beta stimulation for 30 mins by immunoblotting analysis; format: cell-based
T1 sequence (whole entry): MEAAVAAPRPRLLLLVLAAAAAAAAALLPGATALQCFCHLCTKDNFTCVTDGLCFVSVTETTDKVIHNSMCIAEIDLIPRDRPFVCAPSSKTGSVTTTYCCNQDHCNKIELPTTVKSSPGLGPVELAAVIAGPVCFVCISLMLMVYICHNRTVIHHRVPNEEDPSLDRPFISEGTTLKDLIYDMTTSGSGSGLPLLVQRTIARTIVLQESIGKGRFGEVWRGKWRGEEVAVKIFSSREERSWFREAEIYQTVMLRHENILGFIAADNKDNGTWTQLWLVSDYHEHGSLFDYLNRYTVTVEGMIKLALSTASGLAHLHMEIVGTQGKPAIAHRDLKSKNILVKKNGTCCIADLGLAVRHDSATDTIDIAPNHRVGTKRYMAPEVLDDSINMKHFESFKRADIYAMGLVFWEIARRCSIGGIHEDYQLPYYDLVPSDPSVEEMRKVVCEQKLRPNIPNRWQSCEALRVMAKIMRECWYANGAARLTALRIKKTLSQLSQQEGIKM

[11] = target: Insulin-like growth factor 1 receptor (Homo sapiens) (UniProt P08069); test: Inhibition of IGF1R (unknown origin) assessed as residual enzyme activity at 1 uM relative to untreated control
[12] = target: Myosin light chain kinase, smooth muscle (Homo sapiens) (UniProt Q15746); test: Inhibition of SmMLCK (unknown origin) assessed as residual enzyme activity at 1 uM relative to untreated control
[13] = target: Mitogen-activated protein kinase kinase kinase 7 (Homo sapiens) (UniProt O43318); test: Inhibition of TAK1 (unknown origin) assessed as residual enzyme activity at 1 uM relative to untreated control
[14] = target: Receptor tyrosine-protein kinase erbB-4 (Homo sapiens) (UniProt Q15303); test: Inhibition of HER4 (unknown origin) assessed as residual enzyme activity at 1 uM relative to untreated control
[15] = target: Serine/threonine-protein kinase Chk2 (Homo sapiens) (UniProt O96017); test: Inhibition of CHK2 (unknown origin) assessed as residual enzyme activity at 1 uM relative to untreated control
[16] = target: Dual specificity mitogen-activated protein kinase kinase 1 (Homo sapiens) (UniProt Q02750); test: Inhibition of MKK1 (unknown origin) assessed as residual enzyme activity at 1 uM relative to untreated control
[17] = target: Homeodomain-interacting protein kinase 2 (Homo sapiens) (UniProt Q9H2X6); test: Inhibition of HIPK2 (unknown origin) assessed as residual enzyme activity at 1 uM relative to untreated control
[18] = target: Tyrosine-protein kinase ABL1 (Mus musculus, UniProt P00520); test: biochemical; format: cell-based, Sf9
[19] = target: Serine/threonine-protein kinase Sgk1 (Homo sapiens) (UniProt O00141); test: Inhibition of SGK1 (unknown origin) assessed as residual enzyme activity at 1 uM relative to untreated control
[20] = target: Proto-oncogene tyrosine-protein kinase Src (Homo sapiens) (UniProt P12931); test: Inhibition of SRC (unknown origin) assessed as residual enzyme activity at 1 uM relative to untreated control
[21] = target: Ribosomal protein S6 kinase beta-1 (Homo sapiens) (UniProt P23443); test: Inhibition of S6K1 (unknown origin) assessed as residual enzyme activity at 1 uM relative to untreated control
HeLa = test: Cytotoxicity against human HeLa cells assessed as decrease in cell proliferation up to 100 uM after 72 hrs by calcein AM staining-based assay
[22] = target: High affinity nerve growth factor receptor (Homo sapiens) (UniProt P04629); test: Inhibition of TRKA (unknown origin) assessed as residual enzyme activity at 1 uM relative to untreated control
[23] = target: Serine/threonine-protein kinase pim-1 (Homo sapiens) (UniProt P11309); test: Inhibition of PIM1 (unknown origin) assessed as residual enzyme activity at 1 uM relative to untreated control
[24] = target: Calcium/calmodulin-dependent protein kinase kinase 2 (Homo sapiens) (UniProt Q96RR4); test: Inhibition of CAMKKbeta (unknown origin) assessed as residual enzyme activity at 1 uM relative to untreated control
[25] = target: T1, TGF-beta receptor type-1 (Homo sapiens); test: Inhibition of ALK5 in serum starved human HeLa cells assessed as reduction in TGF-beta-induced SMAD2/3 nuclear transaction at 10 uM pre-incubated for 30 mins before TGF-beta stimulation for 30 mins by immunofluorescence analysis; format: cell-based
[26] = target: Serine/threonine-protein kinase N2 (Homo sapiens) (UniProt Q16513); test: Inhibition of PRK2 (unknown origin) assessed as residual enzyme activity at 1 uM relative to untreated control
[27] = target: Tyrosine-protein kinase BTK (Homo sapiens) (UniProt Q06187); test: Inhibition of BTK (unknown origin) assessed as residual enzyme activity at 1 uM relative to untreated control
Tyrosine-protein kinase BTK (Homo sapiens), sequence (Q06187 whole entry): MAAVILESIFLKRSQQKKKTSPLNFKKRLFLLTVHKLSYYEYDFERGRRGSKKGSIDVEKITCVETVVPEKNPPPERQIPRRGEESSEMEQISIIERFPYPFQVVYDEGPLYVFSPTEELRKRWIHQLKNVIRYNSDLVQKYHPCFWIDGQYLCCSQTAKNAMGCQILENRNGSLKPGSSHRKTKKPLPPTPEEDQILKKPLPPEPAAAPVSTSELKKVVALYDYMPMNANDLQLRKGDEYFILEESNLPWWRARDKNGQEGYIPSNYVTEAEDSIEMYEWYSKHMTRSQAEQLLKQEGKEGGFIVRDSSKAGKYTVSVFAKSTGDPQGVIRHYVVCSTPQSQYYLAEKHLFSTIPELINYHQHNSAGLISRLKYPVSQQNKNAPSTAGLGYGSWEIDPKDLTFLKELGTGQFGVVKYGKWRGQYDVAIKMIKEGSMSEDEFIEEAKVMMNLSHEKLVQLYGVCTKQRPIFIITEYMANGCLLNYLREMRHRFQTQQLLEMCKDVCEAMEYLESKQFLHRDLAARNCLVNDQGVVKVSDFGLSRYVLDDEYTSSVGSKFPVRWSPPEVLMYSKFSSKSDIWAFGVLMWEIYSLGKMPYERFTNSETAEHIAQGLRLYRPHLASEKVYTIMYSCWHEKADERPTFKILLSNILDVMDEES

Serine/threonine-protein kinase pim-1 (Homo sapiens), sequence (P11309 whole entry, looked up): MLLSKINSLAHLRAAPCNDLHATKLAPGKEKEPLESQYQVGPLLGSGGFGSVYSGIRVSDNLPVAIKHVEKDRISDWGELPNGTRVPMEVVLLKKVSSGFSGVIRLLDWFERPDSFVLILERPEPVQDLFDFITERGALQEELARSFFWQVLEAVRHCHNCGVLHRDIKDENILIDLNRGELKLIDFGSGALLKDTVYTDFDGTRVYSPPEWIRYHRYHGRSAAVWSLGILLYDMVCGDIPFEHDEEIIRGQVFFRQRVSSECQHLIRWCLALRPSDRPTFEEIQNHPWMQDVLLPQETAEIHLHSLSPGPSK
Serine/threonine-protein kinase N2 (Homo sapiens), sequence (Q16513 whole entry, looked up): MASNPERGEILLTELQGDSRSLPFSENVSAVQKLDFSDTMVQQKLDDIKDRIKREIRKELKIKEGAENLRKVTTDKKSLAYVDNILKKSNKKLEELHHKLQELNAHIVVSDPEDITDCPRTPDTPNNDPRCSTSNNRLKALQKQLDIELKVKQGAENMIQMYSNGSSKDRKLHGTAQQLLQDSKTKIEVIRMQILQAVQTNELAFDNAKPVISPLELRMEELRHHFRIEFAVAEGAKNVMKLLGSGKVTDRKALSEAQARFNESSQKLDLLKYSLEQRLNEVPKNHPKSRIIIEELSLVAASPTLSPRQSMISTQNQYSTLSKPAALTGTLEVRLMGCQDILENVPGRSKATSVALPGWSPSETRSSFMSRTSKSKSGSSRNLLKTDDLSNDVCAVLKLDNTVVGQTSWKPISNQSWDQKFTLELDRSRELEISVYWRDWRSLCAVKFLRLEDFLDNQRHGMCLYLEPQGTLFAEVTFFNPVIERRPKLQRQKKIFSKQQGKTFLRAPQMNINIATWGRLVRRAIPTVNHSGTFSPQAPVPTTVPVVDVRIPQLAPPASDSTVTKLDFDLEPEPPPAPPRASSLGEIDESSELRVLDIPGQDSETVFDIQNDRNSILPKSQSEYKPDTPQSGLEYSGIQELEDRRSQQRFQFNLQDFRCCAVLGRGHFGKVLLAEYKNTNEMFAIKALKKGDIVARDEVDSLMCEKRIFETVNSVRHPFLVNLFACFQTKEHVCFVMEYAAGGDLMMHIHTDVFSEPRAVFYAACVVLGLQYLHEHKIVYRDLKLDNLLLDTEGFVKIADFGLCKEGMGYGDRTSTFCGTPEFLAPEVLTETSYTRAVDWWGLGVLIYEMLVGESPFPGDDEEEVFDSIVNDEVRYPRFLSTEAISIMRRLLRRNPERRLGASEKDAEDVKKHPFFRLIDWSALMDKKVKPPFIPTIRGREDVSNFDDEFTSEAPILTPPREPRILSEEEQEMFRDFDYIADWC
Casein kinase I isoform delta (Homo sapiens), sequence (P48730 whole entry, looked up, canonical isoform): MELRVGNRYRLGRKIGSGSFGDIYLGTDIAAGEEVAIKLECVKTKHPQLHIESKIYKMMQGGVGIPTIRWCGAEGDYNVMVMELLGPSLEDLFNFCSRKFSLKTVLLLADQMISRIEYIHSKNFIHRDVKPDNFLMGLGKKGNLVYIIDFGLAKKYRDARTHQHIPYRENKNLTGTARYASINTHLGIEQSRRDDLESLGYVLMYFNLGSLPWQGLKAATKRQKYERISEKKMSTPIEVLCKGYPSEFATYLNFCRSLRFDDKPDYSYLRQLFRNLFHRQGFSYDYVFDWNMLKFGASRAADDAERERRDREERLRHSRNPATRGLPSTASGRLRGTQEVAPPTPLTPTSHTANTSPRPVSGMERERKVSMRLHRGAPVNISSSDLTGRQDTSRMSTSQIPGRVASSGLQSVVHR
Proto-oncogene tyrosine-protein kinase Src (Homo sapiens), sequence (P12931 2-536 limits assumed): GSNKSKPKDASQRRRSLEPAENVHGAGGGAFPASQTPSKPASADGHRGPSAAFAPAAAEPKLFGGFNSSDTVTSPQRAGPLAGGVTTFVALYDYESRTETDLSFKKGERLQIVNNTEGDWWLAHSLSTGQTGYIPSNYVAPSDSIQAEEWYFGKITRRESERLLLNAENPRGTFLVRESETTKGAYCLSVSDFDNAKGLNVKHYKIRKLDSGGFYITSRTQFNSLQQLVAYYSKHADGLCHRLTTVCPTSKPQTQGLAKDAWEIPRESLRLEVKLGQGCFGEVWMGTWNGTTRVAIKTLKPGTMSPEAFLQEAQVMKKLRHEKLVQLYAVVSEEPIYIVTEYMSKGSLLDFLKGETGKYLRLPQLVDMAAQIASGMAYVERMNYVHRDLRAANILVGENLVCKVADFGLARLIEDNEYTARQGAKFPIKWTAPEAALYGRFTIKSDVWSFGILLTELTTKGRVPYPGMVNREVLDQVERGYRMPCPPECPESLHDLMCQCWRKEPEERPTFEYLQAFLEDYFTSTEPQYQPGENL
Ephrin type-A receptor 2 (Homo sapiens), sequence (P29317 whole entry): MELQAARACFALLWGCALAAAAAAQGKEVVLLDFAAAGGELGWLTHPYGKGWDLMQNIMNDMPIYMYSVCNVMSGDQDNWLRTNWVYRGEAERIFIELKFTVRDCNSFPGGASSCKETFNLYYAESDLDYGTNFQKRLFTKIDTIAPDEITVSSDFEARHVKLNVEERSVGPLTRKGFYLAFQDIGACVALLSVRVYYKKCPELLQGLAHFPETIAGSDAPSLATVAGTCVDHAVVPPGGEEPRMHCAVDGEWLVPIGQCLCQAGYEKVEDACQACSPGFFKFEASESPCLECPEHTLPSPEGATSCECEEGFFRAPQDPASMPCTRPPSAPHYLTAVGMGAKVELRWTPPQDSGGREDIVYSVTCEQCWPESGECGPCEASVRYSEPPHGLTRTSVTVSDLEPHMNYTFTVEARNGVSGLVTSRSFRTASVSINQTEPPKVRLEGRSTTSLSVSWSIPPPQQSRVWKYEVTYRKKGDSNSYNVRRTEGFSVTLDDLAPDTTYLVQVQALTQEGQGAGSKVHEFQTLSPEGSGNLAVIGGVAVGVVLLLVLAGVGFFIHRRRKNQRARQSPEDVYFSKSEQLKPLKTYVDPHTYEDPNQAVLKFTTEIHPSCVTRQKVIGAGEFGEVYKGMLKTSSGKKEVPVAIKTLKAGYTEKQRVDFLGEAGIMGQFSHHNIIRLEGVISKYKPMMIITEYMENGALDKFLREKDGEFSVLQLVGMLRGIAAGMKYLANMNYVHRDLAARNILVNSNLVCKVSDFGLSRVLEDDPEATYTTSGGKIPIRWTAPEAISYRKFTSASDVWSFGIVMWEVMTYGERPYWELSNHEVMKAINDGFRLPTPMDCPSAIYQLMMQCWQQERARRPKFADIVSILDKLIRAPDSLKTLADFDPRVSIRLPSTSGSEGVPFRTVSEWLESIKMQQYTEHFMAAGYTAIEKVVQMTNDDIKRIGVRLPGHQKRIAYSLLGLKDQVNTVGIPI
Mitogen-activated protein kinase kinase kinase 7 (Homo sapiens), sequence (O43318 whole entry): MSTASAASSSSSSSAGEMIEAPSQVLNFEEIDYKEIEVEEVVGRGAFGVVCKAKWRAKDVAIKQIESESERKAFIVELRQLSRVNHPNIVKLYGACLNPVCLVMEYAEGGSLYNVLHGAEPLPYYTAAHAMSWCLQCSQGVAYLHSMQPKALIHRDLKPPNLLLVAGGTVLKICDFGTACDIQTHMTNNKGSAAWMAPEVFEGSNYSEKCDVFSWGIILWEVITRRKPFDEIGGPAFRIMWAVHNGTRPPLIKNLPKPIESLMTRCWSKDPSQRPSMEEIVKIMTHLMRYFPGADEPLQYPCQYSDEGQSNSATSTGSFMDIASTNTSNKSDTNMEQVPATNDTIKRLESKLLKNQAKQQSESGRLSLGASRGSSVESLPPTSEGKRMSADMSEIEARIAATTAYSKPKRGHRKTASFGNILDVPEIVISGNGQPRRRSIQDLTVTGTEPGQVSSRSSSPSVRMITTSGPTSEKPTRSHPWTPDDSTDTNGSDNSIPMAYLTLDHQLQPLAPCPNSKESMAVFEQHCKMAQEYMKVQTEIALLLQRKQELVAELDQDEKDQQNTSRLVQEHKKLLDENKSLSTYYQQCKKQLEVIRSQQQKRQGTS
Serine/threonine-protein kinase Nek6 (Homo sapiens), sequence (Q9HC98 whole entry, canonical isoform): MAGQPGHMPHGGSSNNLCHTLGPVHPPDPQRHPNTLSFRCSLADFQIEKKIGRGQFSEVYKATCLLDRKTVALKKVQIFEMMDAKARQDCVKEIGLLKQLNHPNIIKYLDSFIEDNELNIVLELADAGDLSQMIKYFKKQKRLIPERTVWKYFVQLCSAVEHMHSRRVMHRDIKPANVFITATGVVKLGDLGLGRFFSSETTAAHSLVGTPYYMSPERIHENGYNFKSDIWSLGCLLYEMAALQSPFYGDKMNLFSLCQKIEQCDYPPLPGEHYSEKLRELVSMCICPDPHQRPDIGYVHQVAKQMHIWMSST

Activity [1]: > 80%
Activity [2]: > 80%
Activity [3]: 34%
Activity [4]: > 80%
Activity [5]: > 80%
Activity [6]: > 80%
Activity [7]: > 80%
Activity [8]: 60 to 80%
Activity [9]: > 80%
inhibition [10]: Dose-dependent effect
Activity [11]: > 80%
Activity [12]: > 80%
Activity [13]: > 80%
Activity [14]: > 80%
Activity [15]: > 80%
Activity [16]: > 80%
Activity [17]: > 80%
IC50 [18]: 66 µM
Activity [19]: 60 to 80%
Activity [20]: > 80%
Activity [21]: > 80%
Activity [22]: > 80%
Activity [23]: > 80%
Activity [24]: > 80%
inhibition [25]: 100%
Activity [26]: > 80%
Activity [27]: > 80%
SMILES: Cc1cccc(-c2nn3c(c2-c2ccc(O)cc2)C(C)C(C)(C)C3)n1 (centres undefined)
IC50 (K562): > 100 µM
Activity (HeLa): Non-Toxic
